Where a SMILES comes first, the peptide text is derived from it. [ ]: non-standard residue; d: D form. The star is where a group is joined. Piperazinyl(4-(2-MeOPh)) = COc1ccccc1N1CCN(*)CC1; Piperazinyl(4-Ph) = c1ccc(N2CCN(*)CC2)cc1; dGly(2-thienyl) = N[C@@H](C(=O)O)c1cccs1; d(tBuAla) = CC(C)(C)C[C@@H](N)C(=O)O

Experiment [1] has as its target T1, endothelin A (ETA) receptors (Sus scrofa, UniProt Q29010).
T1 construct: A membrane fraction prepared from swine ventricular muscle; from tissue; host or cells: swine ventricular muscle membrane fraction
T1 sequence (Q29010 21-427): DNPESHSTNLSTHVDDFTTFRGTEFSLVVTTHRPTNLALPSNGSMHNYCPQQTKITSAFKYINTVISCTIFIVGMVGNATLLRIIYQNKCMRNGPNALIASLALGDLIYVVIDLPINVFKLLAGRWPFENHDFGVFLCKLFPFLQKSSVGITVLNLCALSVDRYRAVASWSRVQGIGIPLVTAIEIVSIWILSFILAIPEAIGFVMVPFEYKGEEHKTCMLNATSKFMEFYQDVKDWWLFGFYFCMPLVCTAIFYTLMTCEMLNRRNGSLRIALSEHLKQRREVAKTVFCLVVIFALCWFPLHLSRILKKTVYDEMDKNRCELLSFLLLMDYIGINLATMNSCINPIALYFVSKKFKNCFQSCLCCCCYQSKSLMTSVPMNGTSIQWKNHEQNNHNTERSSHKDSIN
Put plainly: Determination of ETA receptor binding activity ([125I]ET-1, swine ventricular muscle membrane fraction). The following applies: [125I]ET-1 binding, 25° C., 1 hour. As to the method:
Determination of endothelin receptor binding activity (1) Determination of ETA receptor binding activity
A membrane fraction prepared from swine ventricular muscle was diluted to 12 μg/ml with an assaying buffer and dispensed to assaying tubes at 100 μl per tube. To this membrane fraction suspension were added 2 μl of a solution of endothelin-l labeled with 100 pmole of radioactive iodine ([^125 I]ET-1, produced by Amersham Medical Ltd.) and 3 μl of a solution of the subject compound at various concentrations, followed by incubation at 25° C. for 1 hour. The suspension was then diluted with an ice-cooled assaying buffer and filtered through a glass filter GF/F (produced by Whatman K.K.). The membrane fraction containing endothelin A (ETA) receptors and receptor-bound [^125 I)ET-1 were recovered on the filter. The radioactivity retained on the filter was measured to obtain the amount of [^125 I]ET-1 bound to the ETA receptors. The amount of [^125 I,]ET-1 bound in the presence of ET-1 in great excess as the test compound was taken as the amount of nonspecific binding. The amount of specific binding (SPB) of [^125 I]ET-1 was obtained by subtracting the amount of nonspecific binding from the total amount of binding determined. The percent SPB value at test compound concentration C (molar concentration by volume) was defined as the percent ratio of the amount of specific binding relative to the amount of specific binding obtained at a test compound concentration of 0. The thus-obtained value was substituted for the following "pseudo-Hill's equation" to calculate the test compound concentration (IC50 value) required to have a value of 50% for the amount of specific binding of [125I]ET-1.
(§1) log[%SPB/(100 - %SPB)]=n[logC - log(IC50)]
(§2) n: Pseudo-Hill's coefficient

Experiment [2] has as its target T2, endothelin B (ETB) receptors (Bos taurus, UniProt P28088).
T2 construct: A membrane fraction prepared from a bovine brain; from tissue; host or cells: bovine brain membrane fraction
T2 sequence (P28088 27-441): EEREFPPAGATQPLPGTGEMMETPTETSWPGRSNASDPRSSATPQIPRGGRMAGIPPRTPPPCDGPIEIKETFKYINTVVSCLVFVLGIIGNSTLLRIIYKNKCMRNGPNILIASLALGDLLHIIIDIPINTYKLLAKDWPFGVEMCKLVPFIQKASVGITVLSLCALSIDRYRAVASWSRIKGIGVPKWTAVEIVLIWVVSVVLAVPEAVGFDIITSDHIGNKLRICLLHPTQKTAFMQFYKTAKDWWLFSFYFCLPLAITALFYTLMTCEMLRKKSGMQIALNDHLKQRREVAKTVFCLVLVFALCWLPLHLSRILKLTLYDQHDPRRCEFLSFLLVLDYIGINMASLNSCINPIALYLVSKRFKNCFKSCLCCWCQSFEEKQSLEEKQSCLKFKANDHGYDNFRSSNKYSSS
Nature of the experiment: Determination of ETB receptor binding activity ([125I]ET-1, bovine brain membrane fraction). The note with it: [125I]ET-1 binding, 25° C., 1 hour. As to the method: (2) Determination of ETB receptor binding activity
A membrane fraction prepared from a bovine brain was diluted to 150 μg/ml with an assaying buffer and dispensed to assaying tubes at 100 μl per tube. To this membrane fraction suspension were added 2 μl of a solution of endothelin-1 labeled with 100 pM of radioactive iodine ([^125 I]ET-1, produced by Amersham Medical Ltd.) and 3 μl of a solution of the subject compound at various concentrations, followed by incubation at 25° C. for 1 hour. The suspension was then diluted with an ice-cooled assaying buffer and filtered through a glass filter GF/F (produced by Whatman K.K.). The membrane fraction containing endothelin B (ETB) receptors and receptor-bound [^125 I)ET-1 were recovered on the filter. The radioactivity retained on the filter was measured to obtain the amount of (^125 I]ET-1 bound to the ETB receptors. The amount of (^125 I]ET-1 bound in the presence of ET-1 in great excess as the test compound was taken as the amount of nonspecific binding. The amount of specific binding (SPB) of [^125 I]ET-1 was obtained by subtracting the amount of nonspecific binding from the total amount of binding determined. The percent SPB value at test compound concentration C (molar concentration by volume) was defined as the percent ratio of the amount of specific binding relative to the amount of specific binding obtained at a test compound concentration of 0. The thus-obtained value was substituted for the following "pseudo-Hill's equation" to calculate the test compound concentration (IC50 value) required to have a value of 50% for the amount of specific binding of [^125 I]ET-1.
as §1, §2

The subject of experiment [3] is porcine coronary vein ring preparations constricted with sarafotoxin S6c. Put plainly: Determination of porcine coronary vein relaxation activity. The note with it: peptide at 0.01 μM; vein constricted with S6c 1 nM for 45 min; relative to constriction of S6c (100%). As to the method: Determination of porcine coronary vein relaxation activity
Ring preparations of porcine coronary vein (3 mm in a diameter) were placed in an organ bath filled with Krebs solution gassed with 95% O2 /5%CO2 at 37° C. and allowed to stand for 1.5 h at a resting load of 0.5 g tension for vein. The preparations were constricted with 60 mM KCl for 15 min and then washed and allowed to stand for 1.5 h at the resting load. The vein preparations constricted with sarafotoxin S6c (S6c) at 1 nM for 45 min were used to determine the effect of the peptide of Example 4 at 0.01 μM. Result is shown in the following Table as the relaxation rate relative to the constriction of S6c (100%).

For orientation: IC50 means the concentration at which inhibition is half-maximal. A high value points to a need for much substance. For `COc1ccccc1N1CCN(C(=O)C[C@@H]2NC(=O)[C@@H](CC(=O)O)NC(=O)[C@@H](Cc3c[nH]c4ccccc34)NC(=O)[C@H](CC(C)C)NC(=O)[C@@H](CC(C)(C)C)NC(=O)[C@H](CC(=O)O)NC2=O)CC1` [Example 1, cyclo[--D--Asp--Asp(B7)--Asp--D--γMeLeu--L--Leu--D--Trp--]] (cyclo(D(Piperazinyl(4-(2-MeOPh)))D[d(tBuAla)]L[dW][dD])), the IC50 was 0.18 nM in experiment [1] and 11 nM in experiment [2].
The like results for `CC(C)C[C@@H]1NC(=O)[C@@H](CC(C)(C)C)NC(=O)[C@H](CC(=O)O)NC(=O)[C@H](CC(=O)N2CCN(c3ccccc3)CC2)NC(=O)[C@@H](CC(=O)O)NC(=O)[C@@H](Cc2c[nH]c3ccccc23)NC1=O` [Example 2, cyclo(--D--Asp--L--Asp(B1)--L--Asp--D--γMeLeu--L--Leu--D--Trp--)] (cyclo(D(Piperazinyl(4-Ph))D[d(tBuAla)]L[dW][dD])) were, in that order, 0.18 nM and 28 nM.
`COc1ccccc1N1CCN(C(=O)C[C@@H]2NC(=O)[C@@H](CC(=O)O)NC(=O)[C@@H](Cc3cn(C(C)=O)c4ccccc34)NC(=O)[C@H](CC(C)C)NC(=O)[C@@H](CC(C)(C)C)NC(=O)[C@H](CC(=O)O)NC2=O)CC1` [Example 3, cyclo(--D--Asp--L--Asp(B7)--L--Asp--D--γMeLeu--L--Leu--D--Trp(Ac)--)] (cyclo(D(Piperazinyl(4-(2-MeOPh)))D[d(tBuAla)]L[dW](Ac)[dD])): the IC50 came to 0.49 nM in experiment [1] and 14 nM in experiment [2].
On to `CC(C)C[C@@H]1NC(=O)[C@@H](c2cccs2)NC(=O)[C@H](CC(=O)O)NC(=O)[C@H](CC(=O)N2CCN(c3ccccc3)CC2)NC(=O)[C@@H](CC(=O)O)NC(=O)[C@@H](Cc2c[nH]c3ccccc23)NC1=O` [Reference Example 1, cyclo(--D--Asp--L--Asp(B1)--L--Asp--D--Thg(2)--L--Leu--D--Trp--), reference compound] (cyclo(D(Piperazinyl(4-Ph))D[dGly(2-thienyl)]L[dW][dD])), for which the results for the IC50 in experiment [1] and in experiment [2] were 0.08 nM and 120 nM, respectively.
Take “cyclo[--D--Asp--Asp(B7)--Asp--D--γMeLeu--Leu--D--Trp--].2Na [Example 4]”: the “relaxation rate (%)” value in experiment [3] stood at 66%.
